# Measurements: publication PMC7651859, “Identification of 6-amino-1H-pyrazolo[3,4-d]pyrimidines with in vivo efficacy against visceral leishmaniasis” (RSC Medicinal Chemistry, 2020)
# Like-named read-outs stand apart in the source and are kept apart here.
# Assays:
# L. donovani amastigotes = experiment: Ld InMac intramacrophage Leishmania donovani assay; assay type: cell-based; settings: Leishmania donovani; L. donovani amastigotes in THP-1 cells; mean of n ≥ 3; read-out: Ld InMac pEC50 (converted)
# From the text: (§1) For the identification of DDD853651/GSK3186899, which contained a trans-1,4-cyclohexyldiamine, a key strategy was to optimise the balance between potency in the intracellular Leishmania assay (L. donovani in THP-1 cells, referred to as Ld InMac assay[9]) and solubility.[10] In that case, we focused on 2 (Table 1), where the sulfonamide was required for potency but was poorly soluble. […] To this end, we examined a 4-aminopiperidine central unit with both sulfonamide and amide substituents (Table 1). […] We therefore selected 4 as a suitable start-point for further chemistry. […] We noted that either lengthening the linker to the aromatic ring, or removing it, led to a loss of activity (6 and 7 respectively).
# (§2) Intramacrophage Leishmania donovani Assay
# THP-1 cells = experiment: THP-1 host cell toxicity readout of the Ld InMac assay; assay type: cell-based; settings: Homo sapiens; host THP-1 cells; mean of n ≥ 3; read-out: THP-1 pEC50 (converted)
# From the text: as §1, §2
# [1] = CAD kinetic aqueous solubility; assay type: physicochemical; settings: pH 7.4, pH7.4 phosphate buffered saline
# Experimental: CAD Aqueous Solubility 11
# 5µl of 10mM DMSO stock solution is diluted to 100 µ l with pH7.4 phosphate buffered saline,
# equilibrated for 1 hour at room temperature and filtered through Millipore MultiscreenHTS-PCF
# [2] = Stability in mouse liver microsomes (intrinsic clearance); assay type: in vitro ADME; settings: mouse liver microsomal intrinsic clearance, 0.5 μM
# Experimental: Stability in Microsomes 10
# Test compound (0.5 μM) was incubated with female CD1 mouse (Xenotech) liver microsomes and their action started with addition of excess NADPH (8 mg/mL 50 mM potassium phosphate buffer, pH 7.4). Immediately, at time zero, then at 3, 6, 9, 15, and 30 min, an aliquot (50 μL) of the incubation mixture was removed and mixed with acetonitrile (100 μL) to stop the reaction.
# Internal standard was added to all samples, the samples centrifuged to sediment precipitated protein, and the plates then sealed prior to UPLC-MS/MS analysis using a Xevo TQs micro (Waters Corporation, USA). XLfit (IDBS, UK) was used to calculate the exponential decay and consequently the rate constant (k) from the ratio of the peak area of test compound to internal standard at each time point. The rate of intrinsic clearance (Cl i) of each test compound was then calculated using the equation Cl i (mL/min/g liver) = k × V × microsomal protein yield, where V (mL/mg protein) is the incubation volume/mg protein added and […]
# microsomal protein yield is taken as 52.5 mg protein/g liver. Verapamil (0.5 μM) was used as a positive control to confirm acceptable assay performance. […]
# FaSSIF solubility = assay type: physicochemical; settings: fasted state simulated intestinal fluid (FaSSIF)
# [3] = Oral pharmacokinetics in Balb-c mice; assay type: in vivo; settings: mouse, blood, female Balb-c mice, 100 mg kg^–1
# From the text: On this basis, 48 and 50 were progressed into orally dosed pharmacokinetic studies in female Balb-c mice (Table 6), with both having sufficient Cmax (the highest concentration of a drug in the blood) and AUC (area under the curve) to progress into the previously reported mouse efficacy model of VL.[10]
# L. donovani = experiment: Mouse efficacy model of VL; assay type: in vivo; settings: for % Suppression of parasite load: liver load
# Experimental: page 37: microsomal protein yield is taken as 52.5 mg protein/g liver. Verapamil (0.5 μM) was used as a positive control to confirm acceptable assay performance. In Vivo Efficacy Studies 10 Groups of female BALB/c mice (5 per group) were inoculated intravenously with approximately […] L. donovani amastigotes (LV9; WHO designation: MHOM/ET/67/HU3) harvested from the spleen of an infected hamster. From day 7 post infection, groups of mice were treated with either drug vehicle only (orally), with control drugs Miltefosine 30 mg/kg orally and Pentostam 15 mg/kg subcutaneously (only in compound 48 efficacy experiment) or with test compound at the appropriate dose. Miltefosine and Pentostam were dosed once daily for 5 days and test compounds were dosed twice daily for 5 days. Drug dosing solutions were prepared fresh each day and the vehicle was deionized water for Miltefosine and Pentostam, or 0.5% HPMC, 0.4% Tween 80, and 0.5% benzyl alcohol for test compounds. On day 14 all animals were humanely euthanized, liver smears made, and parasite burdens determined by counting the number of amastigotes/500 liver cells. Parasite burden is expressed in Leishman−Donovan units (LDU): the number of amastigotes per 500 nucleated cells multiplied by the organ weight in milligrams. S-37
# ERK8 = biological target: T1, ERK8 (Homo sapiens, UniProt Q8TD08); experiment: Human kinase panel and IC50, ERK8; assay type: biochemical
# T1 sequence (Q8TD08 1-544): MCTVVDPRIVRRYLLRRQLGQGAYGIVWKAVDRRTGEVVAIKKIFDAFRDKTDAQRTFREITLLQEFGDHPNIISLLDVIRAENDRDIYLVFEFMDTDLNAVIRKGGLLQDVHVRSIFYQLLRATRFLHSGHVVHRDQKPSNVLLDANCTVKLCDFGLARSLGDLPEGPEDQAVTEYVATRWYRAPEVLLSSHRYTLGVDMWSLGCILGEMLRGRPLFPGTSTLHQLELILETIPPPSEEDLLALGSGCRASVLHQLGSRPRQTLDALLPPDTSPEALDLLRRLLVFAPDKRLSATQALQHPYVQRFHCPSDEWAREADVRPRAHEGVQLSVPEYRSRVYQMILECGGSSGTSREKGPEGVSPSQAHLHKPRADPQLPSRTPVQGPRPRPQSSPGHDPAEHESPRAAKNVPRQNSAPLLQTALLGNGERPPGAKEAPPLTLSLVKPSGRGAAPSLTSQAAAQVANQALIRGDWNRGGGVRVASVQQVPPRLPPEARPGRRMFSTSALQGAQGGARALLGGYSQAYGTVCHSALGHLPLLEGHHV
# From the text: (§3) From this, only 4 kinases were inhibited at >40% (ERK8 [extracellular signal-regulated kinases], p38α and p38β MAPK [mitogen-activated protein kinases] and CDK2 [cyclin dependant kinase]).
# p38α MAPK = p38α MAPK (Homo sapiens, UniProt Q16539); experiment: Human kinase panel, p38α MAPK; assay type: biochemical; settings: panel of 140 human kinases
# Chain of p38α MAPK (Q16539 whole entry): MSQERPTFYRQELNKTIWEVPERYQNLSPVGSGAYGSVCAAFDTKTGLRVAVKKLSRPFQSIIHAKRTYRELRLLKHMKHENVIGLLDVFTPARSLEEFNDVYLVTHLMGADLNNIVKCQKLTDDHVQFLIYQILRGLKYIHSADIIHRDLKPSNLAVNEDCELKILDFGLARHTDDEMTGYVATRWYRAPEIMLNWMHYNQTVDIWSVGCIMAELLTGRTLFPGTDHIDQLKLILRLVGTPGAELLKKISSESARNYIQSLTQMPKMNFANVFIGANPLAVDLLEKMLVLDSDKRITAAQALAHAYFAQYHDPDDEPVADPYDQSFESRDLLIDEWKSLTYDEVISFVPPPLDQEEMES
# From the text: as §3
# p38β MAPK = p38β MAPK (Homo sapiens, UniProt Q15759); experiment: Human kinase panel and IC50, p38β MAPK; assay type: biochemical
# Chain of p38β MAPK (Q15759 whole entry): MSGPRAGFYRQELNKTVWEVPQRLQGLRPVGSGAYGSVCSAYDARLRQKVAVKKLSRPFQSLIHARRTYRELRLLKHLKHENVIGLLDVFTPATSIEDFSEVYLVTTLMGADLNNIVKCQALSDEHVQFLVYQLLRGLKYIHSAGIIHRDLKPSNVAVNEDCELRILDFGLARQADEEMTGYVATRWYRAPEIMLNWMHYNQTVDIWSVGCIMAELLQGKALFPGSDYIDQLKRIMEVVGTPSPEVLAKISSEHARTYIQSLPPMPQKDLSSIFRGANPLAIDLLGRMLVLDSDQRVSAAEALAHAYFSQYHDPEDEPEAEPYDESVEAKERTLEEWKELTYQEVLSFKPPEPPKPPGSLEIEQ
# From the text: as §3
# CDK2 = CDK2 (Homo sapiens, UniProt P24941); experiment: Human kinase panel, CDK2; assay type: biochemical; settings: panel of 140 human kinases
# From the text: as §3
# [4] = Rat dose-escalation PK study; assay type: in vivo
# [5] = Aqueous solubility, values marked with ref 12; assay type: physicochemical; settings: values marked [12] in the table (method of ref 12, not CAD)
# [6] = 10 μM, panel of 140 human kinases
# [7] = dose increased from 100 to 300 mg kg^–1
compound,measurement,setting,value
O=C(Cc1ccc(F)c(F)c1)N1CCC(Nc2ncc3c(N4CCOCC4)n[nH]c3n2)CC1 [Compound 48],EC50,L. donovani amastigotes,794 nM
same,EC50,THP-1 cells,> 50.1 µM
same,solubility at 1 h,[1],≥ 465 µM
same,Cli mouse,[2],1.6 ml min^–1 g^–1
same,solubility,FaSSIF solubility,97 µg/mL
same,AUC,[3],20900 ng·h/mL
same,Cmax,[3],5760 ng/mL
same,Tmax,[3],1 h
same,% Suppression of parasite load,L. donovani; 30 mg kg^–1 b.i.d. for 5 days PO,60%
same,% Suppression of parasite load,L. donovani; 100 mg kg^–1 b.i.d. for 5 days PO,98%
same,minimum efficacious dose,L. donovani; mouse model of VL,100 mg kg^–1
same,inhibition at 10 µM,ERK8; [6],> 40%
same,IC50,ERK8; full IC50 curve,110 nM
same,inhibition at 10 µM,p38α MAPK,> 40%
same,inhibition at 10 µM,p38β MAPK; [6],> 40%
same,IC50,p38β MAPK; full IC50 curve,550 nM
same,inhibition at 10 µM,CDK2,> 40%
same,Cmax,"[4]; blood, 10 mg kg^–1",229 ng/mL
same,Tmax,"[4]; blood, 10 mg kg^–1",0.67 h
same,AUC(0-t),"[4]; blood, 10 mg kg^–1, read-out: AUC (0-Tlast)",488 ng·h/mL
same,Cmax,"[4]; blood, 100 mg kg^–1",5520 ng/mL
same,Tmax,"[4]; blood, 100 mg kg^–1",6 h
same,AUC(0-t),"[4]; blood, 100 mg kg^–1, read-out: AUC (0-Tlast)",50600 ng·h/mL
same,Cmax,"[4]; blood, 300 mg kg^–1",6760 ng/mL
same,Tmax,"[4]; blood, 300 mg kg^–1",6.67 h
same,increase in AUC(0-Tlast),[4]; [7],1.7 fold
same,increase in Cmax,[4]; [7],1.2 fold
same,AUC(0-t),"[4]; in vivo, 300 mg kg^–1, read-out: AUC (0-Tlast)",84600 ng·h/mL
Clc1ccc(N2CCC(Nc3ncc4c(C5CCOCC5)n[nH]c4n3)CC2)nn1 [Compound 49],EC50,L. donovani amastigotes,1580 nM
same,EC50,THP-1 cells,> 50.1 µM
same,solubility,[5]; aqueous solution,63 µM
COc1ccccc1-c1n[nH]c2nc(NC3CCN(C(=O)CC4CC4)CC3)ncc12 [Compound 42],EC50,L. donovani amastigotes,316 nM
same,EC50,THP-1 cells,39.8 µM
same,solubility at 1 h,[1],22 µM
same,Cli mouse,[2],1.6 ml min^–1 g^–1
same,solubility,FaSSIF solubility,< 1 µg/mL
COc1ccccc1-c1n[nH]c2nc(NC3CCN(C(=O)Cc4ccc(F)cc4F)CC3)ncc12 [Compound 20],EC50,L. donovani amastigotes,79.4 nM
same,EC50,THP-1 cells,39.8 µM
same,solubility at 1 h,[1],< 1 µM
same,Cli mouse,[2],5.0 ml min^–1 g^–1
same,solubility,FaSSIF solubility,< 1 µg/mL
Clc1ccc(N2CCC(Nc3ncc4c(N5CCOCC5)n[nH]c4n3)CC2)nn1 [Compound 50],EC50,L. donovani amastigotes,631 nM
same,EC50,THP-1 cells,> 50.1 µM
same,solubility,[5]; aqueous solution,121 µM
same,Cli mouse,[2],0.6 ml min^–1 g^–1
same,solubility,FaSSIF solubility,88 µg/mL
same,AUC,[3],39800 ng·h/mL
same,Cmax,[3],5230 ng/mL
same,Tmax,[3],4 h
same,% Suppression of parasite load,L. donovani; 25 mg kg^–1 b.i.d. for 5 days PO,17%
same,% Suppression of parasite load,L. donovani; 50 mg kg^–1 b.i.d. for 5 days PO,57%
CC(C)Cc1n[nH]c2nc(NC3CCN(C(=O)c4ccccc4)CC3)ncc12 [Compound 7],EC50,L. donovani amastigotes,> 50100 nM
same,EC50,THP-1 cells,> 50.1 µM
same,solubility at 1 h,[1],291 µM
same,Cli mouse,[2],7 ml min^–1 g^–1
COc1ccccc1-c1n[nH]c2nc(NC3CCN(S(=O)(=O)CCC(F)(F)F)CC3)ncc12 [Compound 37],EC50,L. donovani amastigotes,200 nM
same,EC50,THP-1 cells,> 50.1 µM
same,solubility at 1 h,[1],< 1 µM
same,Cli mouse,[2],14 ml min^–1 g^–1
COc1ccccc1-c1n[nH]c2nc(NC3CCN(c4ccc(Cl)nn4)CC3)ncc12 [Compound 41],EC50,L. donovani amastigotes,158 nM
same,EC50,THP-1 cells,> 50.1 µM
same,solubility,[5],4 µM
same,Cli mouse,[2],3.4 ml min^–1 g^–1
